Read-outs that look alike come from different tables or passages of the source. Where a SMILES comes first, the peptide text is derived from it.
Columns and labels:
[1] = target: T1, ACE (EC 3.4.15.1) purified from the rabbit lungs (Oryctolagus cuniculus, UniProt P12822); assay: biochemical
T1 construct: ACE (EC 3.4.15.1) purified from the rabbit lungs; purchased Sigma-Aldrich Japan K.K; host or cells: rabbit lung (tissue-purified)
T1 sequence (P12822 34-1310): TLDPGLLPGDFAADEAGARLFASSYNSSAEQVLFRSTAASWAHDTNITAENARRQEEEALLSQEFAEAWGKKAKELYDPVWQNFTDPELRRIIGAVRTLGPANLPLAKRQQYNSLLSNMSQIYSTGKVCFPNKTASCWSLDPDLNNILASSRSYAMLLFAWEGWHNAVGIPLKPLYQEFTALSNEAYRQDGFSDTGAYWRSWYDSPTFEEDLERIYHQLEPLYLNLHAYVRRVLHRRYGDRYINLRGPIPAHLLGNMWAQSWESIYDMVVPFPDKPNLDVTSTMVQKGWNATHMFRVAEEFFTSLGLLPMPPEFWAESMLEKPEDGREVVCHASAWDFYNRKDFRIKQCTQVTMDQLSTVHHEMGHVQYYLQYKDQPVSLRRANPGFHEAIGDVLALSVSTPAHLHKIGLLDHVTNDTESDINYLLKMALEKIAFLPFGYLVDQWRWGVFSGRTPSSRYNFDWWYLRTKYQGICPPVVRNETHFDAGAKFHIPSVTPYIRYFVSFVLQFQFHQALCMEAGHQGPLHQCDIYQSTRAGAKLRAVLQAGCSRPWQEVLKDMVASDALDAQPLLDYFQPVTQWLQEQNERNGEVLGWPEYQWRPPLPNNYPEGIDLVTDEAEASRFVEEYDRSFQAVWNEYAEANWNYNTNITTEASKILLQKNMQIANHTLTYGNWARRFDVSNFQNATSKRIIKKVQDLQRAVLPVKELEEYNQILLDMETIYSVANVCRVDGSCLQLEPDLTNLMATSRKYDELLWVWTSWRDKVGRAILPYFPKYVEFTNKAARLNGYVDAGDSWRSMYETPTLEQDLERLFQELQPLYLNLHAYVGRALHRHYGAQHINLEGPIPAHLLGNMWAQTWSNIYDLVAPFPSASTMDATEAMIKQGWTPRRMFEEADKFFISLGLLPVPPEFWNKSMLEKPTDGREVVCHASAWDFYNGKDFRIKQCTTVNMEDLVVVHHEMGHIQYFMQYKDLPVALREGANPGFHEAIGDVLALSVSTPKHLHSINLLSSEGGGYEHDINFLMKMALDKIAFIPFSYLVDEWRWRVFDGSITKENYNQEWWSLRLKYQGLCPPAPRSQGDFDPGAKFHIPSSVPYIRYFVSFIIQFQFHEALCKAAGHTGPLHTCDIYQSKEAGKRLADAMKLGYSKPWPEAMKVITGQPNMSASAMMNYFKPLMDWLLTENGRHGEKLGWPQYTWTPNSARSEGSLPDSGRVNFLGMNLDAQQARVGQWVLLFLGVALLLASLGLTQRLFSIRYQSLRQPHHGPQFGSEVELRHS
Text: ACE (EC 3.4.15.1) purified from the rabbit lungs was obtained from Sigma-Aldrich Japan K.K. (Tokyo, Japan). Hippuryl-L-histidyl-L-leucine (Hip-His-Leu) was obtained from the Peptide Institute (Osaka, Japan). Ammonium formate, borate, diethyl ether, ethyl acetate, formate, hydrochloric acid (HCl), HPLC-grade acetonitrile, sodium chloride (NaCl), potassium chloride (KCl), potassium dihydrogen phosphate (KH2PO4), magnesium acetate (Mg(CH3COO)2), magnesium sulfate (MgSO4), Nonidet P-40, sodium hydrogen carbonate (NaHCO3), sucrose, and tris(hydroxymethyl)aminomethane were purchased from Kanto Chemical Co., Inc. (Tokyo, Japan). Trifluoroacetic acid (TFA) was purchased from Watanabe Chemical Industries, Ltd. (Hiroshima, Japan).
The in vitro ACE inhibition assay was performed using the method described previously. […] Then, 100 µL of commercial ACE (6.0 mU) was added, and the mixture was incubated at 37°C for 30 min. The reaction was stopped by 250 µL of 1.0 N HCl. Released hippuric acid (Hip) was extracted with 1.0 mL ethyl acetate and quantified by HPLC according to our previous report.

[2] = target: T2, Ang II-mediated vasoconstriction (Rattus norvegicus, UniProt P47820); assay: Ex vivo ACE inhibition assay: Ang II-mediated vasoconstriction of endothelium-denuded thoracic aorta rings; parameters: species or system spontaneously hypertensive rats (SHRs); conditions: 0.2 µM Ang I, read-out: EC50 of suppression of Ang II-mediated vasoconstriction
T2 sequence (P47820 36-1313): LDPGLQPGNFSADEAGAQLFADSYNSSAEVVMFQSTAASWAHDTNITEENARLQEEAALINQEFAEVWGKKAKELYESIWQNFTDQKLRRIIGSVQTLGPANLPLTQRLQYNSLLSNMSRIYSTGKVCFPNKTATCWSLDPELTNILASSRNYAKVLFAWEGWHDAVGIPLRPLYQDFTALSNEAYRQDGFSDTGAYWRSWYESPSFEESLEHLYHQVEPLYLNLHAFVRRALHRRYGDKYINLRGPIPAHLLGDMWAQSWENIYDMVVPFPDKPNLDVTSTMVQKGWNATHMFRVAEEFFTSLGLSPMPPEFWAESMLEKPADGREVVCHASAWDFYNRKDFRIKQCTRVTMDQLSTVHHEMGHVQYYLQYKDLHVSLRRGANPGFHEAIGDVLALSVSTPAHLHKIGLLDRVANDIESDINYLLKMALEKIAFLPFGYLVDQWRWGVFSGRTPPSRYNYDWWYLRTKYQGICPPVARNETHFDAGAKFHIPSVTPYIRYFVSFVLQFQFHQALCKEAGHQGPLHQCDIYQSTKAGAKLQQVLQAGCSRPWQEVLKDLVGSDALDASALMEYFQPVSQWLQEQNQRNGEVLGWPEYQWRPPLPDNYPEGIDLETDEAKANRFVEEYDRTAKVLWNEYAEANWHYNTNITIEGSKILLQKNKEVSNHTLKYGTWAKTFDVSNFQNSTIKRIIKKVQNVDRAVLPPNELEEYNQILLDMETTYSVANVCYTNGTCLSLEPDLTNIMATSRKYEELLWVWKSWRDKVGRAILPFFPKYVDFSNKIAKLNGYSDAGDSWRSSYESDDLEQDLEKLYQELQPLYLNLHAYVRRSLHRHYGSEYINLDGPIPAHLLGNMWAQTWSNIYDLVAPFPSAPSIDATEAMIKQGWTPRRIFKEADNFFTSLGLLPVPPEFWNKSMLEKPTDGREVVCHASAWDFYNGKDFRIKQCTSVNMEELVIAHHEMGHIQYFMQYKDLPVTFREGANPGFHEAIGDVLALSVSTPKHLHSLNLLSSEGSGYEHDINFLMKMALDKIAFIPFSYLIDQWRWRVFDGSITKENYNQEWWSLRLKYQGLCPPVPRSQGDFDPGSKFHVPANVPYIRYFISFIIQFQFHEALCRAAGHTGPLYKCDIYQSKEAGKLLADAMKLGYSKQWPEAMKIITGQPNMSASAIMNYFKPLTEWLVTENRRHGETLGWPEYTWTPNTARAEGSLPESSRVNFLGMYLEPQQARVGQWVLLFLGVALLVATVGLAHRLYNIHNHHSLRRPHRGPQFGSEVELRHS

[3] = target: T3, ACE in thoracic aorta tissue (Rattus norvegicus, UniProt P47820); assay: Ex vivo ACE inhibition assay: Ang II production in endothelium-denuded thoracic aorta rings (UPLC-MS)
T3 sequence (P47820 36-1313): T2 sequence (P47820 36-1313)
Protocol: Isolation of the thoracic aorta from SHRs (n = 12) and preparation of endothelium-denuded aortic rings was performed as described above. Endothelium was removed to eliminate the influence of endothelium-derived vasodilators.
After 30 min incubation, 1.0 mL of 0.20 µM Ang I was added and the aortic tension was recorded. When vasoconstriction plateaued, Krebs solution in the organ bath was transferred to a test tube and heated at 90°C for 5 min to stop the enzyme reaction; the heat-treated samples were dried under vacuum and frozen at −80°C until UPLC-MS analysis. The aorta rings were used in the BCA assay to express Ang II production as pmol/mg-protein.
Vacuum-dried samples were dissolved in 500 µL acetonitrile/4.0 mM ammonium formate (5∶95 v/v) with 4.0 mM formic acid prior to UPLC-MS analysis, performed at the CREFAS (Collaborated Research Center for Food Functions, Faculty of Agriculture, Shinshu University); Quattro micro API (MS) with an ACQUITY UPLC (Waters Co., USA) was used. Separation was conducted at 35°C using a CHEMCOBOND 5-ODS-W reversed-phase column (4.6×150 mm; ChemcoPlus Scientific Co., Ltd. Kyoto, Japan). […] Mass spectra were acquired in electrospray ionization (ESI) mode using 3500 V capillary voltage, 30 V cone voltage, 350 L/h N2 gas flow (desolvation), 50 L/h N2 gas flow (cone), 100°C source temperature, and 350°C desolvation temperature. […] For each sample, measurements were performed in triplicate; the results were expressed as the mean ± S.E.

[4] = system: systolic and diastolic blood pressure; conditions: SHRs; ref [8]; cited from earlier work
ACE = system: ACE; parameters: method as in PMID 7673515; conditions: ref [7], [8]; read-out: in vitro ACE-inhibitory activity IC50; cited from earlier work
[5] = Hip-His-Leu substrate, mean ± S.E., n = 3, read-out: In vitro ACE-inhibitory activity IC50

| IC50 [1, 5] | Compound | IC50 [1] | EC50 [2] | IC50 [3] | also measured |
| --- | --- | --- | --- | --- | --- |
|  | CC(C)[C@H](NC(=O)[C@@H](N)CC(=O)O)C(=O)N[C@@H](Cc1c[nH]c2ccccc12)C(=O)N[C@@H](Cc1ccc(O)cc1)C(=O)O [DVWY] (H-DVWY-OH) | 0.69 ± 0.04 mM | 68.2 µM | 70.5 µM |  |
|  | C[C@H](NC(=O)[C@H](CC(=O)O)NC(=O)[C@@H](N)Cc1ccccc1)C(=O)N[C@@H](CCCNC(=N)N)C(=O)N[C@H](C(=O)O)[C@@H](C)O [FDART] (H-FDART-OH) | 1.9 ± 0.1 mM | 53.6 µM | 41.7 µM |  |
| 7.4 ± 0.6 mM | NC(=O)CC[C@H](NC(=O)[C@@H](N)Cc1ccccc1)C(=O)O [FQ] |  | 85.1 µM | 90.9 µM |  |
| 55.9 ± 1.9 mM | CC(C)[C@H](N)C(=O)N[C@@H](C)C(=O)N[C@@H](CCC(=O)O)C(=O)O [VAE] (H-Val-Ala-Glu-OH) |  |  |  |  |
| 39.6 ± 5.7 mM | CC(C)[C@H](N)C(=O)N[C@H](C(=O)NCC(=O)O)C(C)C [VVG] (H-Val-Val-Gly-OH) |  |  |  |  |
|  | C[C@@H](O)[C@H](NC(=O)[C@@H](N)Cc1c[nH]c2ccccc12)C(=O)N[C@@H](Cc1ccccc1)C(=O)N[C@@H](CCCNC(=N)N)C(=O)O [WTFR] (H-WTFR-OH) | 6.7 ± 0.5 mM | 36.8 µM | 5.64 µM | reduction of Ang II production ([3]; at 10 µM, endothelium-denuded rings, 0.2 µM Ang I): 59% |
|  | Val-Tyr [VY] |  |  |  | minimum effective BPL dose [4]: 1.0 mg/kg; IC50 (ACE): 26 µM |

— paper PMC4164440, “Blood Pressure-Lowering Peptides from Neo-Fermented Buckwheat Sprouts: A New Approach to Estimating ACE-Inhibitory Activity” (PLoS ONE, 2014)
